Literature values as cited in US11980686B1, “Agomelatine oral transmucosal film” (Xiamen LP Pharmaceutical Co., Ltd., priority 2023, dated 2024).

Details: oral tablet

**Q.** Which “Inter-individual variation (AUC)” value does the source give for `COc1ccc2cccc(CCNC(C)=O)c2c1` [agomelatine, Agomelatine] here?
**A.** 104%

**Q.** And the “Intra-subject variation (AUC)” value?
**A.** 157%
